From US6335339B1, “Triazine antiviral compounds” (Scriptgen Pharmaceuticals, Inc., priority 1998, dated 2002)

What was measured:
HIV derived RRE RNA = assay: heterologous hybridization inhibition assay with RRE RNA; format: binding; conditions: radiolabeled RRE RNA, rRNA competitor
From the text: Specificity is further tested in a third assay in which the radiolabeled RNA is the HIV derived RRE RNA and the biotinylated oligonucleotide is complementary to RRE. Compounds with high specific activity for εRNA are not expected to be inhibitory in the RRE RNA based assay. The specificity of the ligand for εRNA is expressed as the ratio between the IC50 value obtained with the specific target RNA and the IC50 value obtained with a heterologous target (RRE RNA), both in the presence of competitor RNA.
Biotinylated oligonucleotides 262.104 A (5′-biotin-TTAGGCACAGCTTGGAGGCTTGAACAGTG-3′) and 208.92 A (5′-biotin-CGTCATTGACGCTGCGCCCA-3′) were synthetically prepared (Oligos Etc., Willsonville, Oreg.). These oligonucleotides are complementary to regions of the εRNA and RRE RNA targets, respectively.
Compounds that inhibited the primary screening assay described above were individually titrated in the same assay at concentrations between 0.1 μM and 200 μM in the absence and presence of 60-fold excess rRNA as a non-specific competitor. A third titration was performed in a heterologous assay using radiolabeled RRE RNA as the target and the complementary biotinylated oligonucleotide 208.92 A. From these three assays, the IC50 values and specificity for each compound was calculated.
IC50 values using rRNA competitor (from Example 1) and radiolabeled RRE RNA are shown in Table 1 for the following ligands. […] Specificity is calculated as the ratio of RRE+rRNA IC50/εRNA+rRNA IC50.

2.2.15 cells = assay: neutral red dye uptake cytotoxicity; format: cell-based; conditions: 9 days treatment, read-out: 50% Cell Death CC50
Protocol: Further, the antiviral effect of any compound must be measured against its toxicity. Cytotoxicity is measured by the neutral red uptake method using the same cells used for antiviral activity.
2b. Compounds were prepared for toxicity treatment as follows: For each compound, a total of 4 concentrations were examined. This required 9 sets of 4 sterile, 1.1 ml minitubes (36 tubes per compound). Into the first tube of each set, sufficient compound was aliquoted to make up 465 μl of the highest test concentration. The other tubes were left empty. The tubes were covered with the rack lids, and stored at −20° C. or at an appropriate temperature. Tubes for the last day of treatment for toxicity testing contain the same amount of compound as used the previous days (not 3xas for the antiviral assays).
3b. The cytotoxicity of test compounds was analyzed in a 3.3-fold dilution series as follows. […] (155 μl×3) of RP2 were added to the first tube (containing the aliquot of compound) and 310 μL (155 μl×2) RP2 to each of the 3 remaining tubes. 150 μl of test compound-containing medium were serially transferred from the first tube to the other 3 tubes.
5. A single plate was used for the toxicity treatments for each test compound (up to 7 compounds per plates since the top row were reserved for untreated cells on every toxicity plate). To initiate the treatments, the culture medium was removed, and 100 μl of each dilution of every compound were added to each of 3 wells using a configuration similar to that shown above for the antiviral treatments. The untreated cells received 100 μl RP2 per well. Treatment was repeated daily for 9 days.
The antiviral effect of any compound was evaluated relative to its toxicity. Cells were seeded and treated following the guidelines above, after which a neutral red dye uptake assay was performed to assess toxicity as described below. Other assays of cytotoxicity (e.g., MTT) can be substituted for the procedure described below. Note that this procedure assesses toxicity under culture and treatment conditions which are identical to those used for the antiviral analyses, thereby permitting a determination as to whether the reduction in virus production due to a specific antiviral effect or due to a cytotoxic effect on the host cell. Since the cultures, by necessity, are at confluence, the cytotoxic effects of the test compounds will probably be reduced relative to the cytotoxic effects that would be expected for actively dividing cells.
1. Cultures were treated with test compounds on the designated toxicity plates as described above.
2. The culture medium was carefully removed 24 hours following the 9th day of treatment. The monolayer was fully removed in the top left three wells (row A, col. 1-3). These wells were used as “blanks” for the plate reader.
3. 100 μl DPBS (containing 0.01% neutral red dye) were added to each well, including the empty wells, and Incubated in the tissue culture incubator for 30 minutes.
4. The dye was removed carefully and gently, using a multichannel pipetman since the monolayers can become fragile after incubation with neutral red dye. 200 μl DPBS were added to all the wells taking care not to displace the monolayers. The DPBS was removed and 100 μl 50% EtOH/1% glacial acetic acid (in H2O) were added to each well. The plates were mixed for 15 minutes on an orbital platform shaker (120-150 RPM) to allow for full extraction of the dye from the cells.
5. Optical absorbance at 510 nm was read in an ELISA type plate reader, using the 3 empty wells to set the background. An average absorbance value was calculated for the 9 untreated cultures on a plate, and the absorbance of dye for the treated cultures on the same plate was expressed as a percentage of that value. This procedure was repeated for each individual plate. […]

SMILES	RRE + rRNA IC50 (μM) (HIV derived RRE RNA)	CC50 (2.2.15 cells)	IC50 (HIV derived RRE RNA)
CCCCN(CCCC)c1nc(NN=Cc2ccc([N+](=O)[O-])cc2)nc(Nc2ccc([N+](=O)[O-])cc2)n1 [Compound 5]	inactive	307 µM	–
Cc1[nH]c2ccccc2c1C=NNc1nc(Nc2ccccc2)nc(Nc2ccc([N+](=O)[O-])cc2)n1 [Compound 6]	inactive	29 µM	–
Cc1ccc(Nc2nc(NN=Cc3ccccc3)nc(Nc3ccccc3)n2)c(C)c1 [Compound 7]	Inactive	29 µM	–
CCCCN(CCCC)c1nc(N/N=C/c2cc(I)cc(I)c2O)nc(Nc2ccc([N+](=O)[O-])cc2)n1 [Compound 8]	inactive	196 µM	–
Cc1ccc(Nc2nc(NN=Cc3ccc(O)cc3O)nc(Nc3ccc([N+](=O)[O-])cc3)n2)cc1C [Compound 9]	inactive	175 µM	–
Cc1ccccc1Nc1nc(NN=Cc2ccc(I)cc2)nc(Nc2ccc([N+](=O)[O-])cc2)n1 [Compound 10]	inactive	> 300 µM	–
CCCCN(CCCC)c1nc(NN=Cc2ccc3c(c2)OCO3)nc(Nc2ccc([N+](=O)[O-])cc2)n1 [Compound 11]	inactive	27 µM	–
Cc1ccc(Nc2nc(NN=Cc3ccccc3O)nc(Nc3ccc([N+](=O)[O-])cc3)n2)cc1C [Compound 12]	inactive	77 µM	–
CCN(CC)c1nc(NN=Cc2ccc([N+](=O)[O-])cc2)nc(Nc2ccccc2)n1 [Compound 13]	inactive	> 300 µM	–
COc1c(Br)cc(Br)cc1C=NNc1nc(Nc2ccccc2)nc(N2CCCCC2)n1 [Compound 14]	inactive	> 100 µM	–
Cc1ccc(C=NNc2nc(Nc3ccc([N+](=O)[O-])cc3)nc(Nc3ccccc3C)n2)cc1 [Compound 15]	inactive	0.6 µM	–
CCCCN(CCCC)c1nc(NN=Cc2ccc(Cl)cc2)nc(Nc2ccc([N+](=O)[O-])cc2)n1 [Compound 16]	inactive	304 µM	–
CC(C=NNc1nc(Nc2ccc([N+](=O)[O-])cc2)nc(Nc2ccc(C)c(C)c2)n1)=Cc1ccccc1 [Compound 19]	inactive	> 300 µM	–
COc1ccc(Nc2nc(NN=Cc3ccc(OC)cc3OC)nc(Nc3ccccc3)n2)cc1 [Compound 20]	inactive	7.1 µM	–
FC(F)(F)c1cccc(Nc2nc(Nc3ccccc3)nc(N3CCOCC3)n2)c1 [Compound 21]	inactive	5.6 µM	–
COc1ccc(Nc2nc(NN=Cc3ccc(Cl)cc3)nc(Nc3ccccc3)n2)cc1 [Compound 22]	inactive	47 µM	–
CCCCN(CCCC)c1nc(NN=Cc2ccc(OCC)c(O)c2)nc(Nc2ccc([N+](=O)[O-])cc2)n1 [Compound 23]	inactive	145 µM	–
O=[N+]([O-])c1ccc(Nc2nc(NCc3ccccc3)nc(NN=Cc3ccccc3)n2)cc1 [Compound 24]	inactive	75 µM	–
Cc1ccc(Nc2nc(NN=Cc3ccccc3)nc(Nc3ccccc3)n2)cc1 [Compound 25]	inactive	105 µM	–
CCN(CC)CCNc1ccc2c3c(cccc13)C(=O)N(Nc1nc(NCc3ccccc3)nc(N(CC)CC)n1)C2=O [Compound 27]	inactive	> 300 µM	–
COc1ccc(Br)cc1/C=N/Nc1nc(Nc2cccc([N+](=O)[O-])c2)nc(N2CCOCC2)n1 [Compound 28]	inactive	33 µM	–

SMILES	RRE + rRNA IC50 (μM) (HIV derived RRE RNA)	CC50 (2.2.15 cells)	IC50 (HIV derived RRE RNA)
Cc1ccccc1Nc1nc(NN=Cc2ccc3c(c2)OCO3)nc(Nc2ccc([N+](=O)[O-])cc2)n1 [Compound 29]	inactive	15 µM	–
Cc1ccc(Nc2nc(NN=Cc3cccc(I)c3)nc(Nc3ccccc3)n2)cc1 [Compound 30]	inactive	230 µM	–
Oc1ccc(I)cc1C=NNc1nc(NCc2ccccc2)nc(Nc2ccccc2)n1 [Compound 33]	inactive	50 µM	–
Oc1c(Br)cc(Cl)cc1/C=N/Nc1nc(Nc2cccc(C(F)(F)F)c2)nc(N2CCOCC2)n1 [Compound 34]	inactive	41 µM	–
CCCCN(CCCC)c1nc(NN=Cc2cccc(Cl)c2)nc(Nc2ccc([N+](=O)[O-])cc2)n1 [Compound 35]	inactive	3.9 µM	–
Cc1ccc(Nc2nc(NN=Cc3ccc(I)cc3)nc(Nc3ccccc3)n2)c(C)c1 [Compound 113]	–	> 300 µM	300 µM
O=[N+]([O-])c1ccc(Nc2nc(NN=Cc3ccc(Br)cc3)nc(N3CCCCCC3)n2)cc1 [Compound 117]	inactive	> 300 µM	–
FC(F)(F)c1cccc(Nc2nc(NN=Cc3ccc(Cl)cc3)nc(N3CCOCC3)n2)c1 [Compound 120]	–	45 µM	1110 µM
C(=Cc1ccccc1)C=NNc1nc(Nc2ccccc2)nc(Nc2ccccc2)n1 [Compound 125]	–	265 µM	1000 µM
CCN(CC)c1nc(NCc2ccccc2)nc(N/N=C/c2ccccc2O)n1 [Compound 155, 2-hydroxybenzaldehyde N-[4-(benzylamino)-6-(diethylamino)-1,3,5-triazin-2-yl]hydrazone]	inactive	–	–
COc1ccc(Nc2nc(NN=Cc3ccc(O)cc3O)nc(Nc3ccccc3)n2)cc1 [Compound 158]	inactive	112 µM	–
Cc1ccc(Nc2nc(NN=Cc3cc(I)ccc3O)nc(Nc3ccccc3)n2)c(C)c1 [Compound 159]	inactive	101 µM	–
Oc1ccc(Cl)cc1C=NNc1nc(Nc2ccc3ccccc3c2)nc(N2CCOCC2)n1 [Compound 160]	–	> 300 µM	420 µM
COc1c(C=NNc2nc(NCc3ccccc3)nc(Nc3ccccc3)n2)cccc1[N+](=O)[O-] [Compound 162]	inactive	436 µM	–
Brc1cccc(C=NNc2nc(Nc3ccccc3)nc(N3CCOCC3)n2)c1 [Compound 163]	inactive	150 µM	–
COc1ccc(Nc2nc(NN=Cc3ccc(O)cc3O)nc(N3CCOCC3)n2)cc1 [Compound 164]	inactive	201 µM	–
COc1ccc(C=NNc2nc(NCc3ccccc3)nc(Nc3ccccc3)n2)cc1 [Compound 165]	inactive	> 300 µM	–
Ic1cccc(C=NNc2nc(Nc3ccc4ccccc4c3)nc(N3CCOCC3)n2)c1 [Compound 166]	inactive	252 µM	–
Oc1ccc2ccccc2c1C=NNc1nc(Nc2cccc3ccccc23)nc(N2CCOCC2)n1 [Compound 167]	inactive	161 µM	–
COc1c(C=NNc2nc(Nc3ccccc3)nc(Nc3ccccc3)n2)ccc(Br)c1O [Compound 168]	inactive	> 300 µM	–
